“And” between values parts separate entries of the source, which are not always exact repeats. Equal entries are not always repeated.
Key:
[1] = test system: fibronectin; assay: Stimulation of fibronectin synthesis in NHDF (ELISA); format: cell-based, human; conditions: 100 μM
Experimental: (§1) Tests were performed with normal human dermal fibroblast cultures at the 8th passage. Cells were grown in DMEM supplemented with glutamine at 2 mM, penicillin at 50 U/mL and streptomycin (50 μg/mL) and 10% of fetal calf serum (FCS) at 37° C. in a 5% CO2 atmosphere.
(§2) Fibroblasts were cultured for 24 hours before the cells were incubated with the test compounds for further 72 hours. After the incubation the culture supernatants were collected in order to measure the released quantities of procollagen I, VEGF, and fibronectin by means of ELISA. Reference test compounds were vitamin C (procollagen I), PMA (VEGF), and TGF-β (fibronectin).

[2] = test system: TNF-α; assay: Anti-inflammatory potential: secreted TNF-α in stimulated NHEK (ELISA); format: cell-based, human; conditions: poly(I:C) stimulation, 100 μM
Experimental: (§3) NHEK were pre-incubated for 24 h with the test compounds. The medium was replaced with the NHEK culture medium containing the inflammatory inducers (PMA or Poly I:C) and incubated for another 24 hours. Positive and negative controls ran in parallel. At the endpoint the culture supernatants were quantified of secreted IL-8, PGE2 and TNF-α, by means of ELISA.

[3] = test system: PGE2; assay: Anti-inflammatory potential: secreted PGE2 in stimulated NHEK (ELISA); format: cell-based, human; conditions: PMA stimulation, 100 μM
Experimental: as §3

[4] = test system: VEGF; assay: Stimulation of VEGF release in NHDF (ELISA); format: cell-based, human; conditions: 72 hours, 100 μM
Experimental: as §1, §2

[5] = test system: lipid peroxides (C11-fluor) in NHEK cells; assay: Protection against UV-induced lipid peroxide in NHEK (C11-fluor probe, flow cytometry); format: cell-based, human
Experimental: (§4) Pre-incubated NHEK were incubated with the test compound for 24 h. Then the specific fluorescence probe for the measurement of hydrogen peroxide (DHR) or lipid peroxides (C11-fluor) was added and incubated for 45 min. Irradiation occurred with in H2O2 determination UVB at 180 mJ/cm^2 (+UVA at 2839 mJ/cm^2) or UVB at 240 mJ/cm^2 (+UVA at 3538 mJ/cm^2) in lipid peroxide, respectively, using a SOL500 Sun Simulator lamp. After irradiation the cells were post-incubated for 30 min before flow-cytometry analysis.

[6] = test system: IL-8; assay: Anti-inflammatory potential: secreted IL-8 in stimulated NHEK (ELISA); format: cell-based, human; conditions: 100 μM; for Cytokine [pg/mL] IL-8: single values
Experimental: as §3

[7] = test system: normal human epidermal keratinocytes (NHEK); assay: Cytotoxicity on NHEK monolayer (MTT reduction assay and morphological observation); format: cell-based; conditions: MTT; for Viability (%): single values, listed as Nar-5-Rha
Experimental: To determine the cytotoxicity of flavonoid-5-O-α-L-rhamnosides tests were performed versus their aglycon derivatives in cell monolayer cultures. For this purpose concentrations ranging from 1 μM to 250 μM were chosen. The viability of normal human epidermal keratinocytes (NHEK) was twice evaluated by a MTT reduction assay and morphological observation with a microscope. NHEK were grown at 37° C. and 5% CO2 aeration in Keratinocyte-SFM medium supplemented with epidermal growth factor (EGF) at 0.25 ng/mL, pituitary extract (PE) at 25 μg/mL and gentamycin (25 μg/mL) for 24 h and were used at the 3rd passage. For cytotoxicity testing, pre-incubated NHEK were given fresh culture medium containing a specific concentration of test compound and incubated for 24 h. After a medium change at same test concentration cells were incubated a further 24 h until viability was determined. Test results are given in Table B2 and illustrated in FIG. 10.

[8] = test system: hydrogen peroxide (DHR) in NHEK cells; assay: Protection against UV-induced H2O2 stress in NHEK (DHR probe, flow cytometry); format: cell-based, human; conditions: 180 mJ/cm^2 UVB (2839 mJ/cm^2 UVA), 100 μM
Experimental: as §4

[9] = test system: procollagen I; assay: Stimulation of procollagen I synthesis in NHDF (ELISA); format: cell-based, human; conditions: 72 hours, 100 μM
Experimental: as §1, §2

[10] = test system: STAT3; assay: STAT3 activity in HeLa-STAT3-luc cells stimulated with IFN-γ (luciferase); format: cell-based; conditions: +IFNγ 25 U/ml
Experimental: HeLa-STAT3-luc cells were stably transfected with the plasmid 4×M67 pTATA TK-Luc. Cells (20×10^3 cells/ml) were seeded 96-well plate the day before the assay. Then the cells were treated with the test substances for […] and then stimulated with IFN-γ 25 IU/ml. After 6 h, the cells were washed twice with PBS and lysed in […] lysis buffer containing 25 mM Tris-phosphate (pH 7.8), 8 mM MgCl2, 1 mM DTT, 1% Triton X-100, and 7% glycerol during […] at RT in a horizontal shaker. Luciferase activity was measured using GloMax 96 microplate luminometer (Promega) following the instructions of the luciferase assay kit (Promega, Madison, Wis., USA). […] The experiments for each concentration of the test items were done in triplicate wells.

[11] = 240 mJ/cm^2 UVB (3538 mJ/cm^2 UVA), 100 μM
[12] = 240 mJ/cm^2 UVB (3538 mJ/cm^2 UVA), 100 μM, single values

C[C@@H]1O[C@@H](Oc2cc(O)cc3c2C(=O)CC(c2ccc(O)cc2)O3)[C@H](O)[C@H](O)[C@H]1O (mixture of isomers) [NR1, Naringenin-5-O-α-L-rhamnoside]
fibronectin synthesis increase [1]: 20% | Fibronectin % Control ([1]; 72 h incubation): 120% | Fibronectin % Stimulation ([1]; 72 h incubation): 20% | Fibronectin (ng/ml), single replicates ([1]; 72 h incubation): 6833 ng/mL and 7820 ng/mL | Fibronectin Mean ([1]; 72 h incubation): 7326 ng/mL | Cytokine [pg/mL] TNFα Mean [2]: 516 pg/mL | TNFα % stim. control [2]: 92% | Cytokine [pg/mL] TNFα ([2]; single values): 516 pg/mL | Cytokine [pg/mL] PGE2 Mean [3]: 1271 pg/mL | PGE2 % stim. control [3]: 81% | Cytokine [pg/mL] PGE2 ([3]; single values): 851 pg/mL and 1691 pg/mL | Mean VEGF [4]: 92 pg/mL | VEGF % Control [4]: 128% | VEGF ([4]; single values): 90 pg/mL and 94 pg/mL | C11-fluor (AU) Mean (1/GMFI) [5, 11]: 4.3E−04 AU | lipid peroxide % Irradiated control [5, 11]: 93% | lipid peroxide Protection % [5, 11]: 9% | C11-fluor (AU) 1/GMFI [5, 12]: 4.1E−04 AU and 4.4E−04 AU | C11-fluor (AU) GMFI [5, 12]: 2414 AU and 2255 AU | anti-oxidative function on lipid peroxides ([5]; UV irradiation): anti-oxidative function | Cytokine [pg/mL] IL-8 Mean ([6]; PMA stimulation): 2564 pg/mL | IL-8 % stim. control ([6]; PMA stimulation): 88% | Cytokine [pg/mL] IL-8 ([6]; PMA stimulation): 2572 pg/mL and 2555 pg/mL | Cytokine [pg/mL] IL-8 Mean ([6]; poly(I:C) stimulation): 3154 pg/mL | IL-8 % stim. control ([6]; poly(I:C) stimulation): 86% | Cytokine [pg/mL] IL-8 ([6]; poly(I:C) stimulation): 3055 pg/mL and 3253 pg/mL | Viability (%) Mean ([7]; 1 μM): 101% | Viability (%) ([7]; 1 μM): 91% and 111% | Viability (%) Mean ([7]; 2.5 μM): 93% | Viability (%) ([7]; 2.5 μM): 92% and 93% | Viability (%) Mean ([7]; 5 μM): 86% | Viability (%) ([7]; 5 μM): 85% and 88% | Viability (%) Mean ([7]; 10 μM): 97% | Viability (%) ([7]; 10 μM): 94% and 100% | Viability (%) Mean ([7]; 25 μM): 95% | Viability (%) ([7]; 25 μM): 92% and 98% | Viability (%) Mean ([7]; 50 μM): 84% | Viability (%) ([7]; 50 μM): 78% and 91% | Viability (%) Mean ([7]; 100 μM): 86% | Viability (%) ([7]; 100 μM): 82% and 90% | Viability (%) Mean ([7]; 250 μM): 83% | Viability (%) ([7]; 250 μM): 79% and 87% | H2O2 % irradiated control [8]: 136% | H2O2 (AU) Mean [8]: 2516.5 AU | H2O2 Protection % [8]: −44% | H2O2 (AU) (DHR GMFI) ([8]; single values): 2531 AU and 2502 AU | Procollagen I % Control [9]: 66% | Procollagen I % Stimulation [9]: −34% | Procollagen I Mean [9]: 1097 ng/mL | Procollagen I ([9]; single values): 1334 ng/mL and 860 ng/mL | % Activation (STAT3; IFNγ = 100%) ([10]; 25 μM): 58.47% | RLU 1 ([10]; 25 μM): 10925 RLU | RLU 2 ([10]; 25 μM): 8301 RLU | RLU 3 ([10]; 25 μM): 8752 RLU | RLU MEAN ([10]; 25 μM): 9326 RLU | RLU specific ([10]; 25 μM): 7319 RLU | % Activation (STAT3; IFNγ = 100%) ([10]; 50 μM): 69.97% | RLU 1 ([10]; 50 μM): 18272 RLU | RLU 2 ([10]; 50 μM): 6426 RLU | RLU 3 ([10]; 50 μM): 7599 RLU | RLU MEAN ([10]; 50 μM): 10766 RLU | RLU specific ([10]; 50 μM): 8758 RLU
